# Test results: paper PMC6853232, “Discovery and evaluation of novel synthetic 5-alkyl-4-oxo-4,5-dihydro-[1,2,4]triazolo[4,3-a]quinoxaline-1-carbox-amide derivatives as anti-inflammatory agents” (Journal of Enzyme Inhibition and Medicinal Chemistry, 2019)
# Tested on: iNOS protein expression in LPS-induced RAW 264.7 cells
# Assay: Western blot, iNOS protein expression
# Type: cell-based, mouse
# Protocol: The cells were collected and washed three times with ice-cold PBS. The cells were treated with a cell lysis buffer [50 mM Tris (pH 7.6), 150 mM NaCl, 5 mM EDTA (pH 8.0), 0.6% NP-40, 1 mM Na3VO4, 20 mM β-glycerophosphate, 1 mM phenylmethylsulfonyl fluoride, 2 mM p-nitrophenyl phosphate, and 1:25 Complete Mini Protease Inhibitor cocktail (Boehringer, Mannheim,Germany)] and kept on ice for 30 min. The cell lysates were centrifuged (12,000 g at 4 °C) for 5 min to obtain a cytosolic fraction. The protein concentration was determined by BCA protein assay kit (Beyotime, Haimen, China). Aliquots of the lysates were separated on 10% sodium dodecyl sulphate (SDS)-polyacrylamide gel electrophoresis (PAGE) and then electro blotted onto a polyvinylidene difluoride (PVDF) membrane. The blots were blocked with 5% (w/v) non-fat dry milk for 2 h at 37 °C, followed by incubation with specific primary antibody at 4 °C overnight. Blots were washed with Tween 20/Tris-buffered saline [TTBS, 20 mM Tris–HCl buffer, pH 7.6, containing 137 mM NaCl and 0.05% (vol/vol) Tween 20] and incubated with a peroxidase-conjugated secondary antibody for 1 h. Blots were again washed with TTBS and the immune active proteins were detected using ECL plus (Thermo, USA). […] Results are expressed as the relative ratio of the specific band compared with the internal reference.
structure (smiles),measurement,setting,value
"COc1cc(Cn2c(=O)c3nnc(C(N)=O)n3c3ccccc32)cc(OC)c1OC [6p, 5-(3,4,5-trimethoxybenzyl)-4-oxo-4,5-dihydro-[1,2, 4]triazolo[4,3-a]quinoxaline-1-carboxamide]",inhibition of iNOS protein expression,"30 µM, LPS 1 µg/mL, p < .001",39.89%
same,"iNOS protein expression, dose dependence","7.5, 15 and 30 µM",dose-dependent manner
